From US8148099B2, “Process for determining S-nitrosothiols in biological fluids” (Universita' Di Pisa, priority 2006, dated 2012)

How the values were obtained:
[1] = biological target: T1, γ-glutamyltranspeptidase (GGT) (Homo sapiens, UniProt P19440); settings: read-out: Km constant (Michaelis-Menten kinetic constant) of GGT; substance as substrate of GGT; cited from earlier work
[2] = blood; cited from earlier work
[3] = biological target: T1, γ-glutamyltranspeptidase (GGT); assay: Decomposition kinetics of GSNO, absorbance at 334 nm (FIG. 1); assay type: biochemical
Description: GSNO has a absorption band at 334 nm. […] In FIG. 1 in particular, the decomposition kinetics is shown of 50 uM GSNO with GGT 525 mU/mL added at the time t=0. In ordinates the absorbance at 334 nm is shown. […]
At the addition of GGT 525 mU/mL the decrease is observed of the absorbance at 334 nm that indicates the decomposition of GSNO (curve a of FIG. 1). GSNO is quantitatively decomposed, in the adopted operative conditions, in 450 sec.

T1 sequence (P19440 whole entry, species assumed): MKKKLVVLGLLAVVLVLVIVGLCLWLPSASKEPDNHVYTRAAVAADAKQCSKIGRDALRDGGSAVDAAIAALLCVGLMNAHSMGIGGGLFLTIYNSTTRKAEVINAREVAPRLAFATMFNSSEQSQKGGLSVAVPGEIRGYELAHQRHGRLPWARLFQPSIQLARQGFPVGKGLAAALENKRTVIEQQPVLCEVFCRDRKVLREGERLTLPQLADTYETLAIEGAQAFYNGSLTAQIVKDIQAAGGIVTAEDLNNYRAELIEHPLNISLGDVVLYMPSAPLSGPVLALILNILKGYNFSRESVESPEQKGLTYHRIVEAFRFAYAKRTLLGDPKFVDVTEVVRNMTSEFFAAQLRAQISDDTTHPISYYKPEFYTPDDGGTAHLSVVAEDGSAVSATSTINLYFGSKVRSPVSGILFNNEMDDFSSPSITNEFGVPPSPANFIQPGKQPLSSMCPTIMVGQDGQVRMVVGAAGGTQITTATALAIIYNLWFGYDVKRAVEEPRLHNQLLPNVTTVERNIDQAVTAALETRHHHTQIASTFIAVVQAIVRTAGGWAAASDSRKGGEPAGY

## N[C@@H](CCC(=O)N[C@@H](CS)C(=O)NCC(=O)O)C(=O)O [GSH, reduced glutathione]
[1]
  Km: 5 to 10 µM

## [N]=O [NO, Nitric oxide]
[2]
  half life in the hematic area: about 2 ms

## N[C@@H](CCC(=O)N[C@@H](CSN=O)C(=O)NCC(=O)O)C(=O)O [GSNO, S-nitrosoglutathione]
[3]; 50 uM GSNO, GGT 525 mU/mL, phosphate buffer 0.1 M pH 8.0, GlyGly 4.5 mM, Cu(SO4) 100 uM (curve a)
  time for quantitative decomposition of GSNO: 450 s
[3]; adding only 50 uM of CuSO4 (curve b)
  change of absorbance at 334 nm: no decrease is observed
[1]
  Km: 28 µM
